These results are taken from ChEMBL document CHEMBL1201862, “PubChem BioAssay data set” (2004).

The nature of assay [1]: inhibitors of firefly luciferase expression or activity, dose response, H4 neuroglioma cells, luminescence (AID 1990). Format: functional, cell-based.
A short description of assay [2]: Luminescence Cell-Based Dose Response HTS to Identify Inhibitors of 5'UTR Stem-Loop Driven Prion Protein mRNA Translation in H4 Neuroglioblastoma Cells. [Related pubchem assays: 1827 (Project Summary), 1813 (Primary HTS)]. It is filed as functional.
Assay [3] is described as follows: inhibitors of SNCA 5'UTR-driven reporter translation, confirmation, H4 neuroglioma cells, luminescence (AID 1988). It is filed as functional, cell-based.
Assay [4] in a line: cytotoxicity in HEK-293T cells, dose response, cytotoxicity control for BCR NF-kB inhibitor project, luminescence, B-cell screen hits (AID 489021).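 Further: HEK-293T cells carrying an NF-kB luciferase reporter; cells exposed to compound for about 14 hours before viability readout.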 It is filed as functional, cell-based.
Assay [5] deals with T1, Heat shock factor protein 1 (Mus musculus, UniProt P38532).
T1 sequence (P38532 whole entry): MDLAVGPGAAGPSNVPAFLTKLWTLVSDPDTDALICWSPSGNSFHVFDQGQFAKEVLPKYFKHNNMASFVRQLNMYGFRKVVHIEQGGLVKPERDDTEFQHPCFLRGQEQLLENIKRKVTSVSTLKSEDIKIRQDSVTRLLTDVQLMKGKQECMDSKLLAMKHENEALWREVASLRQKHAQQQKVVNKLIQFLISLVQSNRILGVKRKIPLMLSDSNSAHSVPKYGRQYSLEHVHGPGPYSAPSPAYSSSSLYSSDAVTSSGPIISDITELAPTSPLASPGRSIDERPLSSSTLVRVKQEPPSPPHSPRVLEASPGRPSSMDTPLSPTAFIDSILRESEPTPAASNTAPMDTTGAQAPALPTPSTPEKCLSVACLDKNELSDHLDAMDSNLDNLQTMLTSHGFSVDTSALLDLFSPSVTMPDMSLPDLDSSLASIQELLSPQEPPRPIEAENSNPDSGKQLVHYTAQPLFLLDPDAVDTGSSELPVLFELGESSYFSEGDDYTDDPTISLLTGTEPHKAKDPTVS
The experiment in a line: inhibition of MG132-induced HSE-luciferase signal, confirmation, cell-based, NIH3T3, luminescence, dose retest (AID 2382).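 Further: NIH3T3 fibroblasts with HSF1-driven luciferase reporter stressed by proteasome inhibitor MG132; luminescence from HSF1-driven luciferase expression after 8 hours of MG132 stress.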 It is filed as functional.

Assay [6] concerns the target T2, Ubiquitin-conjugating enzyme E2 N (Homo sapiens, UniProt P61088).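 Further: Dose-response confirmation in a TR-FRET assay detecting UBC13-driven polyubiquitin chain formation, inhibition measured.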
T2 sequence (P61088 whole entry): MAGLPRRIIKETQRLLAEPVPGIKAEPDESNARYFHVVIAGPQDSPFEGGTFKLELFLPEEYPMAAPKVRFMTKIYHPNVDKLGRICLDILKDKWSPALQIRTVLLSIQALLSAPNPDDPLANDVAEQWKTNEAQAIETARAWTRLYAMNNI
Format: functional.

For assay [7], the target named is T3, Short transient receptor potential channel 4 (Mus musculus, UniProt Q9QUQ5).
T3 sequence (Q9QUQ5 whole entry): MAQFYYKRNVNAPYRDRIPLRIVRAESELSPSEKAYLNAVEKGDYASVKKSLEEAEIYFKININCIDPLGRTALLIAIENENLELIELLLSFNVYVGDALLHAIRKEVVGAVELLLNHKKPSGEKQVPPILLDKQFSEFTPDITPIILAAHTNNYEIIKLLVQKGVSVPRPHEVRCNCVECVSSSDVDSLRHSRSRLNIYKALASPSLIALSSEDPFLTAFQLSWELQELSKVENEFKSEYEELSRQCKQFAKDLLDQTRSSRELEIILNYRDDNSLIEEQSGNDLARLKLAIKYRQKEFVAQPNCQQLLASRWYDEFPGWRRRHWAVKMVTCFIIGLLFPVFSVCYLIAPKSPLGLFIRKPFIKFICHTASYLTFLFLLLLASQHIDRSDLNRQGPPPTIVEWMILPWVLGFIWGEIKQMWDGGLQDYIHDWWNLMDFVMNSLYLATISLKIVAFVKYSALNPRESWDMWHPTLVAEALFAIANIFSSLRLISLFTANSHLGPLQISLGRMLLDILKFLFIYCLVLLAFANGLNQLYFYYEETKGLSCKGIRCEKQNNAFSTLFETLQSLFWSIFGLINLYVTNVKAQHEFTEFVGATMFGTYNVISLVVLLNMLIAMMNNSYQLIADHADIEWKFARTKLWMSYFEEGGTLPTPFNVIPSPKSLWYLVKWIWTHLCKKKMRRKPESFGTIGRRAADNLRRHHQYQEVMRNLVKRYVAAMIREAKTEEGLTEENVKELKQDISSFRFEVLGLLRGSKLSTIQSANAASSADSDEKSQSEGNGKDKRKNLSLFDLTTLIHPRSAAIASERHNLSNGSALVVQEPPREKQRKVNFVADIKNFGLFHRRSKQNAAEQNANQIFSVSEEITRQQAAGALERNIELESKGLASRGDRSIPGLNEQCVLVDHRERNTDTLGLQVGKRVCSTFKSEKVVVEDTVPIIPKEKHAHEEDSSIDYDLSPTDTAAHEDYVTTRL
The experiment in a line: mouse TRPC4 channel inhibitors, dose response, cell-based, HEK293 TRPC4/mu-opioid, Fluo-4 calcium (AID 434942).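 Further: potency of inhibitors blocking the TRPC4 calcium response.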 It is filed as functional.

The target in assay [8] is T4, Aminopeptidase N (Plasmodium falciparum FcB1/Columbia, UniProt O96935).
T4 sequence (O96935 whole entry): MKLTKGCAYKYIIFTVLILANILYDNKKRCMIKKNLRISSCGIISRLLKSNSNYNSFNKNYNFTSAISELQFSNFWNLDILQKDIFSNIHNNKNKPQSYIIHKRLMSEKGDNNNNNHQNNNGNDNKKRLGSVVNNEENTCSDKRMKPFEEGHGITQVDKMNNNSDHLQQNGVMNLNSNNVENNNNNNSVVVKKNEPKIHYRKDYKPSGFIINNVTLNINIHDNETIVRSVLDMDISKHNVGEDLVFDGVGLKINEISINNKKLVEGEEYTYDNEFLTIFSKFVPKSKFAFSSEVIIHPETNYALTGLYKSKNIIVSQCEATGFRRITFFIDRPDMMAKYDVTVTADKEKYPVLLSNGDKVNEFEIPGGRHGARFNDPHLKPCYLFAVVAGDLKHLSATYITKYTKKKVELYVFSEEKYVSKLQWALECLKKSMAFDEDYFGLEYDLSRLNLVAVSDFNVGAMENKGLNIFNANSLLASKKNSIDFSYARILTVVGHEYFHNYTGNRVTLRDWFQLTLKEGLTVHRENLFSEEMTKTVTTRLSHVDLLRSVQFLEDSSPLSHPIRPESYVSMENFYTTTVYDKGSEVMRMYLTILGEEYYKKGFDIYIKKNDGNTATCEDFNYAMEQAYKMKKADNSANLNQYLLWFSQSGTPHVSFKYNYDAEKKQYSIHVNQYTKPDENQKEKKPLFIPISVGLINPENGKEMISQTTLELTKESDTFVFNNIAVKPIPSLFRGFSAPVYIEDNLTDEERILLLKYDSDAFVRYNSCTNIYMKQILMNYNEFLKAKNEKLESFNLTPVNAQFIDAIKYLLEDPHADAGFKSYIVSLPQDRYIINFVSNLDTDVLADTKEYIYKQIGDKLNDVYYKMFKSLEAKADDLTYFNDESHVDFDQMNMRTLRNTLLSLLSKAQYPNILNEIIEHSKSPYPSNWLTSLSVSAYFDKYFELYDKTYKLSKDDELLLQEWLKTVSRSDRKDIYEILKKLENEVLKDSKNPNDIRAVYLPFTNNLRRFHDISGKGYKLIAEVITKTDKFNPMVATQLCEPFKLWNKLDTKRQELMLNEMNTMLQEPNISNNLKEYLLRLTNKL
The experiment in a line: P. falciparum M1AAP inhibitors, biochemical, fluorogenic H-Leu-NHMec substrate, 1536-well (AID 1445). Also on record: species or system Plasmodium falciparum 3D7, 3D7.

The target in assay [9] is T5, RNA-binding protein pos-1 (Caenorhabditis elegans, UniProt G5EF15).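 Further: purified POS-1 fused to maltose binding protein made in E. coli; potency of compounds blocking POS-1 binding to fluorescent RNA.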
T5 sequence (G5EF15 whole entry): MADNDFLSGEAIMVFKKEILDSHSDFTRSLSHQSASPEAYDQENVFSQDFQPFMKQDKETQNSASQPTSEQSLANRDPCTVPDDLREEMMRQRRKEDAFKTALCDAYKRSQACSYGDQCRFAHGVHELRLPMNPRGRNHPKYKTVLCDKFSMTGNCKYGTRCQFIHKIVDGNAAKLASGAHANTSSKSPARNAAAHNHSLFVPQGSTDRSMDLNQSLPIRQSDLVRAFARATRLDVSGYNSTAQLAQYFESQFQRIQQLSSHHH
The experiment in a line: inhibitors of POS-1/mex-3 RNA binding, dose response, biochemical, fluorescence polarization (AID 1964). (In general: Polarisation of emitted light reports the rotation of a fluorescent probe.)

In assay [10] the target is T6, Zinc finger protein mex-5 (Caenorhabditis elegans, UniProt Q9XUB2).
T6 sequence (Q9XUB2 whole entry): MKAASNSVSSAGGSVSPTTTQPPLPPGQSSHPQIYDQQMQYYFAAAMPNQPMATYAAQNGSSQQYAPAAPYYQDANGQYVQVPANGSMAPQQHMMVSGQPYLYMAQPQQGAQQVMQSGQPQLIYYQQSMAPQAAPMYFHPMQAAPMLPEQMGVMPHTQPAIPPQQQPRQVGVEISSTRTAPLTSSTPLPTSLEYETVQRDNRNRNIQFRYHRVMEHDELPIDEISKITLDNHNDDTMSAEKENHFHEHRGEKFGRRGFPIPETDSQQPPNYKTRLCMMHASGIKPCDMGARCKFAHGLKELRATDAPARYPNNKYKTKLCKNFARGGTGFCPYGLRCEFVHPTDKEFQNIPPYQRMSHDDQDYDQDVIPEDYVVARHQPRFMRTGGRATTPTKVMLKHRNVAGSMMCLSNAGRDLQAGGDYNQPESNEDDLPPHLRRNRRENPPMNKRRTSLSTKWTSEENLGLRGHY
As to the kind of experiment: MEX-5/TCR-2 RNA interaction inhibitors, dose response, biochemical, C. elegans, fluorescence polarization (AID 1960).

The nature of assay [11]: inhibitors of intracellular T. cruzi replication, confirmation, NIH3T3 host cells, beta-gal luminescence (AID 2044).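 Further: intracellular parasites grown in NIH/3T3 mouse fibroblasts as host cells; luminescent beta-galactosidase reporter signal from transgenic T. cruzi replicating inside host cells; inhibitors lower the luminescence signal.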 It is filed as functional, cell-based.
Assay [12] in a line: cytotoxicity toward NIH3T3 fibroblasts, dose response, counter-screen, cell-based, ATP luminescence, mouse fibroblasts (AID 2010).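 Further: cells exposed to compound for about 90 hours before reading.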 Format: functional. In general terms: The purpose of a counterscreen is to sort out artefacts and off-target activity.
The target of assay [13] is T7, Calpain-2 catalytic subunit (Sus scrofa, UniProt P43367).
T7 sequence (P43367 whole entry): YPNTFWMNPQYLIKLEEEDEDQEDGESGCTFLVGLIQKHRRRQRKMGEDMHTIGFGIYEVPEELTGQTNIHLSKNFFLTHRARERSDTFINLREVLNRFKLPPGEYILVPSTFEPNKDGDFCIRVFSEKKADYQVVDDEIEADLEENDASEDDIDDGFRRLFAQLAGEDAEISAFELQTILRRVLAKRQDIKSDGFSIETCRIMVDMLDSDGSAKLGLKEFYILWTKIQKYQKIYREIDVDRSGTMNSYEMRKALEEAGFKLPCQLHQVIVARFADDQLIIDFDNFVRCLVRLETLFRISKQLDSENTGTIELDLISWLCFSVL
As to the kind of experiment: pig calpain II inhibitor potency, dose response, biochemical, fluorogenic peptide substrate (AID 1420). It is filed as functional.

Assay [14] concerns the target T1, Heat shock factor protein 1. The experiment in a line: HSF1 potentiators in luciferase reporter cells, confirmation, cell-based, NIH3T3, luminescence, dose retest (AID 435004).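 Further: stress induced by proteasome inhibitor MG132 added 30 min after compound; luciferase reporter driven by HSF1 response element in NIH3T3 cells; actives raise luminescence as potentiators of the MG132 stress response.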 It is filed as functional. (Reporter assays use an easily measured gene product as a stand-in for the process of interest.)
The nature of assay [15]: NIH-3T3 fibroblast cytotoxicity, dose response, cytotoxicity control, cell-based, fluorescence, Alamar Blue, secondary assay (AID 2327).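 Further: NIH-3T3 mouse fibroblasts cultured with fluconazole at 8 µg/mL.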 Format: functional.

Activity calls are given as the source filed them.

One may read the EC50 as the concentration needed to bring the measured effect to its halfway point. The term IC50 denotes the concentration at which inhibition is half-maximal. On to `Cc1cccc(C(=O)Nc2ccc(CC(=O)O)cc2)c1`, for which the concentration for a half-maximal effect (EC50) in assay [1] was 12.9 µM (active); in assay [2] it was 16.9 µM (active); in [3] it was 28.5 µM (active). Also, the IC50 in assay [4] was > 80 µM (inactive).
Consider `O=C(CCCc1nc(-c2ccccc2Cl)no1)NC1CCCC1`, for which the half-maximal effective concentration (EC50) was 0.822 µM (active) in assay [1], 5.93 µM (active) in assay [2], > 195 µM (not active) in [5] and 0.606 µM (active) in assay [3]. The IC50 in [4] was > 80 µM (inactive).
In the case of `O=C(CCCN1C(=O)/C(=C/c2ccccc2Cl)SC1=S)NNC(=O)c1ccc(Cl)cc1`, the IC50 in [6] was > 20 µM (inactive); in assay [4] it was > 80 µM (inactive).
On to `O=C(COC(=O)c1c(Cl)cccc1Cl)Nc1ccccc1Br`, for which the EC50 in assay [7] is 1.33 µM (active).
Take `CN1C(=O)S/C(=C/c2cccn2-c2cccc(C(=O)O)c2)C1=O`: the IC50 in assay [8] is 84.3 µM (active). Moreover, the EC50 in assay [9] and in assay [10] was > 300 µM (not active) each time.
Regarding `Cc1cccc2cc(CN(CCCN(C)C)C(S)=NCCc3ccccc3)c(O)nc12`, the EC50 in assay [11] was 0.69 µM (active); in assay [12] it was > 30 µM (not active); in [7] it was 4.22 µM (active).
For `COc1ncnc2sc3c(c12)CCCC3`, in [7], the EC50 was 5.96 µM (active).
On to `CCN(CC)c1ncnc2scc(C3COc4ccccc4O3)c12` (stereo not drawn), for which the IC50 in assay [13] was 10.3 µM (not active). Moreover, the half-maximal effective concentration (EC50) in assay [7] is 5.31 µM (active).
`COc1ccc(/C=C2\SC(=S)N(CCC(=O)Nc3cccc(O)c3)C2=O)cc1`: the EC50 in [14] is 58.8 µM (active). The IC50 in assay [4] was > 80 µM (inactive).
Take `C#Cc1ccc(CN2CCCC(C(=O)Nc3ccccc3Oc3cccnc3)C2)cc1` (stereo not drawn): the EC50 in assay [7] was 1.68 µM (active).
In the case of `NC(=O)C1CCN(C(=O)COc2ccc3ccccc3c2Br)CC1`, the IC50 in assay [4] is > 80 µM (inactive).
`CC1CCN(CCCOc2ccc(OCc3ccccc3)cc2)CC1`: in assay [7], the EC50 is 0.531 µM (active).
`Cc1c(CCOC(=O)CC23CC4CC(CC(C4)C2)C3)sc[n+]1Cc1ccccc1`: the results for the EC50 in assay [15] and in assay [7] were > 160 µM (inactive) and 5.96 µM (active), respectively.
